Assays:
GERD patients = details: cited from earlier work
parietal cell = details: meal-induced gastric acid secretion; cited from earlier work
[1] = tested on: pH of the stomach contents; test: pH of the stomach contents of treated pigs; type: in vivo
Source text: FIG. 1 illustrates experimental data concerning the percentage of time that the gastric contents remain above pH 3 in different groups of pigs treated with ranitidine (4 animals), omeprazole (5 animals) and hG17(1-9) (4 animals), as compared to six (6) control animals.
FIG. 2 illustrates the percentage of time that the gastric contents remain above pH 4 in a group of untreated (control) pigs […] and groups of pigs treated with human gastrin 17(1-9)Ser9-Diphtheria […] (4 animals), ranitidine (4 animals) and omeprazole (5 animals) as described in FIG. 1.
FIG. 3 depicts the baseline median pH of the gastric contents of a group of six (6) untreated (control) pigs and groups of four (4) pigs treated with human G17(1-9)Ser9-Diphtheria Toxoid, […] pigs with ranitidine and five (5) pigs with omeprazole as described in FIG. 1.
In the following Examples, the anti G17 immunogenic composition, 150 mg ranitidine and 60 mg omeprazole were administered to pigs and the resulting changes in the pH of the stomach contents before and after treatment were measured. Specifically, following the stomach pH measurements of the untreated control state of each pig, the stomach pH of the same pigs was measured after the animals were treated with either ranitidine, or composition of human gastrin 17(1-9)-h(G 17)ser9-Diphtheria Toxoid (Gastrimmune), or omeprazole administered individually and at different times in each of four animals (pigs).

gastrin-17 = gastrin-17 (Homo sapiens, UniProt P01350); test: Serum anti-gastrin antibody response of Gastrimmune-immunized mice (ELISA); type: in vivo
Source text: Gastrin neutralization was achieved by using the immunological composition Gastrimmune which is composed of the amino terminal domain of gastrin-17 linked, via an amino acid or peptide spacer to diphtheria toxoid which acts as the immunogenic carrier.
Serum antibody titers rose within 2 weeks of the initial immunization to levels with an antigen binding capacity of >10^−9M. The presence of anti-gastrin antibodies within the serum of Gastrimmune-immunized mice was confirmed by using an ELISA. As expected, no bound gastrin levels were detected in animals immunized with control immunogen.

[2] = 400-800 mg cimetidine and 150-300 mg ranitidine twice daily

Question: Which “patients with healing of esophagitis, endoscopically determined (mean)” value (GERD patients; [2]) does the source give for `CN/C(=N/CCSCc1nc[nH]c1C)NC#N` [cimetidine] here?
Answer: 48%

Question: And the “patients with symptomatic relief of GERD (mean)” value (GERD patients; [2])?
Answer: 61%

Question: What about the “efficacy in GERD patients at doses and durations proven effective in healing peptic ulcers” value (GERD patients; GERD patients, peptic ulcer doses and durations) of the same compound?
Answer: not effective in GERD

Question: Which “effectiveness in alleviating the symptoms of GERD esophagitis compared with histamine H2 blockers” value (GERD patients; human, in vivo) does the source give for `Cc1c(OCC(F)(F)F)ccnc1C[S+]([O-])c1nc2ccccc2[nH]1` (stereo not drawn) [lansoprazole] here?
Answer: more effective than histamine H2 blockers

Question: For heptadecagastrin [Peptide G17], which “potency as stimulator of gastric acid secretion relative to histamine” value (parietal cell) is on record?
Answer: 1500 times

Question: Which results are given for “human gastrin 17(1-9)-h(G 17)ser9-Diphtheria Toxoid [Gastrimmune]”?
Answer: inhibition of acid output from the stomach [1]: inhibited stomach acid output at a level of effectiveness between ranitidine and omeprazole; time that the gastric contents remain above pH 3 ([1]; FIG. 1, 150 mg ranitidine, 60 mg omeprazole): for a longer period of time than in the pigs treated with ranitidine; time that the gastric contents remain above pH 4 ([1]; FIG. 2, 150 mg ranitidine, 60 mg omeprazole): for a longer period of time than in the pigs treated with ranitidine; median pH of the stomach contents ([1]; FIG. 3): higher than ranitidine treated pigs; presence of anti-gastrin antibodies within the serum (ELISA) (gastrin-17; Gastrimmune-immunized mice): confirmed; cross-reactivity of the antibodies raised (gastrin-17; mouse, in vivo): cross-reacted with both amidated and glycine-extended gastrin-17; antigen binding capacity of serum antibody titers (gastrin-17; within 2 weeks of the initial immunization): > 10^−9 M

Reference: patent publication US20060039911A1, “Method for the treatment of gastroesophageal reflux disease” (Aphton Corporation, priority 1998, published 2006)
